According to patent US20090232793A1, “Elastase inhibitor and acute leukemia” (YEDA RESEARCH AND DEVELOPEMENT CO., LTD., priority 2004, published 2009):
The star is where a group is joined. MeOSuc = COC(=O)CCC(=O)*; CH2Cl = ClC*

How the values were obtained:
[1] = test system: AML cells, primary and cell lines; experiment: in vitro transwell migration assay of AML cells; format: cell-based, human; settings: for spontaneous migration: in absence of SDF-1, 30 min pre-treatment, data not shown
Method: (§1) (A) In vitro transwell migration assay of AML cells, either untreated or treated for 30 minutes with elastase inhibitor, 10 μg/ml EI (MeOSuc-AAPV-CMK) (A), anti elastase Abs (B) or a1-antitrypsin (a1-AT) (C). […] (D) Immunocytochemical analysis of primary AML cells on poly-L-lysine coated surfaces. Cells were pre-treated for 30 minutes with elastase inhibitor (EI) or left untreated, allowed to adhere in the absence (−) or presence of 200 ng/ml SDF-1, fixed and indirectly immunolabeled with anti-CXCR4 and anti-elastase Ab. Original magnification 100×.
Elastase inhibitor decreases SDF-1 induced migration of AML cells. To study the role of elastase in migration of AML cells, we evaluated the effect of elastase inhibition on spontaneous, or SDF-1-induced AML migration by in vitro transwell assay. The migration assay was carried out as follows: a total of […] RPMI supplemented with 10% FCS in the presence or absence of 125 ng/mL recombinant human SDF-1 (rhSDF-1) (Peprotech, Rocky Hill, N.J.) was added to the lower chamber of a Costar 24-well transwell plates with […] pore filters (Corning, N.Y.). One hundred thousand primary MNC leukemic cells or AML cell lines with or without pretreatment for 30 min. with elastase inhibitor (EI) MeOSuc-AAPV-CMK (10 μg/ml Calbiochem, La jolla, Calif.) or monoclonal mouse anti human neutrophil elastase Ab (50-100 ul of 70 μg/ml, Dako, Glostrup, Denmark) were added to the upper chamber and were allowed to migrate to the lower chamber for 4 hours at 37° C. Migrating cells were collected from the lower chamber and counted using a FACSCalibur (Becton Dickinson).

AML CXCR4 expression = experiment: cell surface CXCR4 expression on AML cells by FACS; format: cell-based, human; settings: data not shown
Excerpt: To test whether the decreased migration by elastase inhibition is eventually due to reduction in CXCR4 expression, we examined the effect of elastase inhibition on AML CXCR4 expression. […] Thus, it appears that the role of elastase in migration of AML cells is not working via CXCR4 regulation.

primary AML cells [2] = experiment: immunocytochemical analysis of protrusions and cell polarization on poly-L-lysine; format: cell-based, human
Method: as §1
When leukemic cells were pre-treated with elastase inhibitor (EI), the formation of SDF-1 induced protrusions was prevented (FIG. 3D). Of note, basal cell polarization in absence of SDF-1 was also abolished by EI.

primary human AML cells = experiment: homing of human AML cells to the BM of B2nmull NOD/SCID mice; format: in vivo; settings: for homing into the NOD/SCID mice BM: 30 min incubation with EI 10 μg/ml before injection, 16 hours
Method: In order to assess the effect of elastase inhibition on the in vivo migration (or homing) of human AML cells to the BM, primary AML mononuclear cells (MNC) cells (5×10^6) were injected into sublethally irradiated B2nmull NOD/SCID mice, either untreated or after 30 minute incubation with EI […].
(§2) More specifically, human primary AML MNC, enriched CD34+ AML or CB cells at the indicated cell doses were suspended in […] RPMI with 10% FCS incubated for 30 minutes in 37° C. either with or without elastase inhibitor (10 μg/ml) before injection to mice via the dorsal tail vein. Mice were sacrificed 16 hours after transplantation, BM cells flushed from both femurs and tibias bones were harvested and resuspended into single-cell suspension. The percentage of human cells was determined by immunostaining with anti-human CD45-FITC mAB (Immuno Quality Products, Groningen, The Netherlands). Human Fc receptors were blocked with human plasma (1%) and murine Fc receptors by anti-mouse CD16-CD32 (Pharmingen) (1:50). Isotype control antibodies were used in order to exclude false positive cells (BD). After staining, the cells were analyzed on a FACS Calibur (BD) using Cell Quest software.

[3] = test system: normal CB enriched CD34+ cells; experiment: homing of normal CB CD34+ cells to the BM of B2nmull NOD/SCID mice; format: in vivo; settings: normal human CD34+ enriched cells; EI pre-treated 10 μg/ml; vs untreated cells
Method: as §2
We next examined the homing of normal enriched CD34+ cells after elastase inhibition. In order to analyze similar primitive stem cell populations, CB CD34+ cells were compared to primary enriched CD34+ AML cells of three other patients (1.5-3×10^6) with different FAB subtypes. As with MNC cells from some patients, inhibition of primary enriched CD34+ AML cells was observed. […]

[4] = test system: human primary AML MNC cells; experiment: egress of engrafted primary AML cells from BM into the circulation of NOD/SCID mice; format: in vivo; settings: for BM (%) human CD45+ cells / PB (%) human CD45+ cells / PB/BM: EI 1 mg x 4 days
Method: In order to test this assumption, primary AML cells (20-40×10^6) were injected into sublethally irradiated NOD/SCID mice to establish human AML-mice chimerism and AML egress from the bone marrow into the circulation was monitored, two-four weeks later, in mice treated with elastase inhibitor as compared to non treated mice.
(§3) More specifically, human primary AML MNC cells (10-30×10^6) or HL60 AML cell line (20×10^6) was injected into NOD/SCID mice. Two-four weeks later, EI (1 mg) was injected once a day for 4 consecutive days. PB from mice asphyxiated with dry ice was collected by cardiac aspiration in heparinized tubes and BM was collected as mentioned above. Percentage of human cells was determined by immunofluorescence for CD45 as described above.

HL60 AML cell line = experiment: egress of engrafted HL60 cells from BM into the circulation of NOD/SCID mice; format: in vivo, human
Method: as §3

ML-2 = experiment: proliferation, viable cells by trypan blue exclusion; format: cell-based, human; settings: ML2; EI 10 μg/ml; 7 days in culture
Method: (§4) To test the role of elastase in proliferation of AML cells, primary AML cells (1×10^6/ml), AML cell lines (1×10^4/ml) or normal CD34+ enriched cord blood (CB) cells (1×10^5/ml) were grown in RPMI supplemented with 10% FCS with or without elastase inhibitor (10 μg/ml). The number of viable cells was determined on days 0, 1, 3, 5 and 7 using trypan blue exclusion.
(§5) The effect of EI on the proliferative rate of primary MNC AML cells and AML cell lines (ML-2, U937) was evaluated after 3-7 days respectively in culture. […] After 7 days in culture the number of ML2 and U937 was increased and cell proliferation was inhibited by culturing cells in the presence of EI (FIG. 6A).

U937 = experiment: as above; format: cell-based, human; settings: EI 10 μg/ml, 7 days in culture
Method: as §4, §5

primary AML cells [5] = experiment: as above; format: cell-based, human; settings: primary MNC AML cells; EI 10 μg/ml; 3 days in culture
Method: as §4, §5

[6] = test system: normal CD34+ enriched cord blood (CB) cells; experiment: proliferation and CD34+/38- percentage of normal cord blood cells; format: cell-based, human
Method: Primary AML cells, AML cell lines and human cord blood (CB) cells with or without 10 μg/ml elastase inhibitor (EI), were cultured for 3-7 days and the number of viable cells was determined using trypan blue exclusion (A). Enriched CD34+ CB cells from full term deliveries were grown in RPMI/10% FCS with SCF, FLT3L and IL6. The percentage of CD34+/38− cells from the total enriched CD34+ CB cells cultured with and without EI was determined by FACS (B).
as §4

normal CB CD34+ cells = experiment: cell surface elastase expression by FACS after SDF-1; format: cell-based, human; settings: SDF-1 200 ng/ml for 1 and 3 hours
Method: (§6) Cell surface elastase on primary AML and cell lines or on normal CB CD34+ enriched cells was analyzed by flow cytometry as follows: AML cells were incubated with polyclonal rabbit anti-human elastase (Biodesign, Kennebunkport, Me.) for 30 min., washed and antibody binding was detected using secondary anti-rabbit-FITC (FIG. 2A upper panel and 2B).
(§7) In order to confirm our assumption, primary AML cells and normal CB CD34+ cells were treated with SDF-1 (200 ng/ml) for 1 and 3 hours, and expression of cell surface elastase was determined by FACS (FIG. 7).

primary AML cells [7] = experiment: as above; format: cell-based, human; settings: SDF-1 200 ng/ml for 1 and 3 hours
Method: as §6, §7

With MeOSuc-AAPV-CH2Cl [EI] the spontaneous migration [1] was “also reduced”, the “SDF-1 dependent migration of the cells” value ([1]; pre-incubation 30 min with 5-10 μg/ml EI, toward 125 ng/ml SDF-1, 4 hours, p=0.039) was “significantly reduced” and the “level of cell surface CXCR4 expression” value (AML CXCR4 expression) was “did not change”. The “formation of SDF-1 induced protrusions” value (primary AML cells [2]; 30 min pre-treatment, 200 ng/ml SDF-1) was “prevented”, the basal cell polarization (primary AML cells [2]; in absence of SDF-1) was “abolished” and the “homing into the NOD/SCID mice BM” value (primary human AML cells; M2 and M4 primary AML cells, vs untreated cells) was “significantly decreased”. For the same substance, the “homing to the murine BM” value (primary human AML cells; enriched CD34+ AML progenitors, EI pre-treated 10 μg/ml, vs untreated cells) was “decreased”, the “homing into the NOD/SCID mice BM” value (primary human AML cells; primary M1 and M5 AML cells) was “not inhibited but rather increased” and the “homing to the murine BM” value [3] was “increased”. For the same substance, the “AML cell egress to the PB” value ([4]; human primary cells, EI 1 mg once a day, 4 consecutive days, vs untreated mice) was “decreased”, the “BM (%) human CD45+ cells” value ([4]; patient #1 M2) was 80% and the “PB (%) human CD45+ cells” value ([4]; patient #1 M2) was 6%. For the same substance, the PB/BM ([4]; patient #1 M2) was 0.07, the “BM (%) human CD45+ cells” value ([4]; patient #2 M4) was 50% and the “PB (%) human CD45+ cells” value ([4]; patient #2 M4) was 2.5%. The PB/BM ([4]; patient #2 M4) was 0.05, the “BM (%) human CD45+ cells” value ([4]; patient #3 M4) was 12.7% and the “PB (%) human CD45+ cells” value ([4]; patient #3 M4) was 0.5%. The PB/BM ([4]; patient #3 M4) was 0.039, the “BM (%) human CD45+ cells” value ([4]; patient #4) was 16.9% and the “PB (%) human CD45+ cells” value ([4]; patient #4) was 0.25%. The PB/BM ([4]; patient #4) was 0.014, the “BM (%) human CD45+ cells” value (HL60 AML cell line; HL-60, EI 1 mg x 4 days) was 4% and the “PB (%) human CD45+ cells” value (HL60 AML cell line; HL-60, EI 1 mg x 4 days) was 2.4%. The PB/BM (HL60 AML cell line; HL-60, EI 1 mg x 4 days) was 0.6, the “AML cell egress to the PB” value (HL60 AML cell line; human AML line, EI 1 mg once a day, 4 consecutive days, vs untreated mice) was “decreased” and the cell proliferation (ML-2) was “inhibited”. The cell proliferation (U937) was “inhibited”, the “number of viable AML cells” value (primary AML cells [5]) was “significantly decreased” and the “percentage of primitive progenitor cells CD34+/38−” value ([6]; 3 days in culture in the presence of cytokines (SCF, FLT3L, IL6) and EI) was “significantly increased”. For the same substance, the proliferation rate ([6]; normal CB CD34+ cells, EI 10 μg/ml) was “enhanced”.
With “SDF-1: chemokine, also called pre-B-cell growth-stimulating factor; recombinant human SDF-1 (Peprotech)” the “cell surface elastase expression” value (normal CB CD34+ cells) was “decreases” and the “cell surface elastase expression” value (primary AML cells [7]) was “increase”.
In the case of a1-antitrypsin, the spontaneous migration [1] was “affected”.
